According to patent EP0185961A2, “1-Phenyl-imidazole-5-carboxylic acid derivatives, process for their preparation and their use as growth regulators” (HOECHST AKTIENGESELLSCHAFT, priority 1984, dated 1986):

Tests used:
Roggen = assay: Growth inhibition in cereals, greenhouse tray test, sprayed at 3-leaf stage; format: in vivo; conditions: % of growth increment of untreated controls, read-out: Wuchsshemmung in % bei Roggen; for pest or weed control at 1250 g/ha: 1,25 kg/ha; for pest or weed control at 2500 g/ha: 2,5 kg/ha
Source text: (§1) In Schalenversuchen im Gewächshaus werden junge Getreidepflanzen (Weizen, Gerste, Roggen) im 3-Blattstadium mit erfindungsgemäßen Verbindungen in verschiedenen Wirkstoffkonzentrationen (kg/ha) tropfnaß gespritzt. […]

Weizen = assay: as above; format: in vivo; conditions: % of growth increment of untreated controls (100% = growth standstill), read-out: Wuchsshemmung in % bei Weizen; for pest or weed control at 1250 g/ha: 1,25 kg/ha; for pest or weed control at 2500 g/ha: 2,5 kg/ha
Source text: as §1

Gerste = assay: as above; format: in vivo; conditions: % of growth increment of untreated controls, read-out: Wuchsshemmung in % bei Gerste; for pest or weed control at 1250 g/ha: 1,25 kg/ha; for pest or weed control at 2500 g/ha: 2,5 kg/ha
Source text: (§2) In Schalenversuchen im Gewächshaus werden junge Getreidepflanzen (Weizen, Gerste, Roggen) im 3-Blattstadium mit erfindungsgemäßen Verbindungen in verschiedenen Wirkstoffkonzentrationen (kg/ha) tropfnaß gespritzt.
(§3) Es wird außerdem die phytotoxische Wirkung der Verbindung beobachtet.

[1] = system: Getreidepflanzen (Weizen, Gerste, Roggen); assay: Phytotoxic effect observed in the cereal growth inhibition test; format: in vivo; conditions: cereals; one cell for 2,5 and 1,25 kg/ha
Source text: as §2, §3

Reispflanzen [2] = conditions: in vivo
Source text: (§4) Reispflanzen werden in Kleinparzellen (2 m x 2 m) angezogen und im Stadium der maximalen Bestockung mit erfindungsgemäßen Verbindungen behandelt. Die Substanzen werden sowohl durch Spritzung appliziert als auch in das Wasser gegeben.
(§5) 3 Wochen nach der Behandlung wird bei allen Pflanzen der Zuwachs gemessen und die Wuchshemmung in % des Zuwachses der Kontrollpflanzen berechnet. Es wird außerdem auf eine mögliche phytotoxische Wirkung der Verbindungen geachtet.
(§6) Die Wuchshemmung wird als prozentualer Wert ermittelt, wobei 100% den Stillstand des Wachstums und 0% ein Wachstum entsprechend dem der unbehandelten Kontrollpflanzen bedeuten.

Sojabohnen [3] = conditions: in vivo
Source text: (§7) Etwa 10 cm große Sojabohnen werden mit den Wirkstoffzubereitungen tropfnaß bespritzt. Nach 3 Wochen wird bonitiert.
as §6

Sojabohnen [4] = assay: Growth inhibition in soybeans; conditions: Glycine max, 504 h, read-out: Wuchsshemmung (%)
Source text: as §7, §6

Reispflanzen [5] = assay: Growth inhibition in paddy rice, small plots; conditions: Oryza sativa, 504 h, read-out: Wuchsshemmung (%)
Source text: as §4, §5, §6

Row | Compound | pest or weed control at 1250 g/ha (Roggen) [%] | pest or weed control at 2500 g/ha (Roggen) [%] | pest or weed control at 1250 g/ha (Weizen) [%] | pest or weed control at 2500 g/ha (Weizen) [%] | pest or weed control at 1250 g/ha (Gerste) [%] | pest or weed control at 2500 g/ha (Gerste) [%] | Phytotox. Wirkung [1] | Phytotox. Wirkung (Reispflanzen [2]) | Phytotox. Wirkung (Sojabohnen [3]) | pest or weed control at 2500 g/ha (Sojabohnen [4]) [%] | pest or weed control at 620 g/ha (Reispflanzen [5]) [%] | pest or weed control at 1250 g/ha (Reispflanzen [5]) [%]
1 | CCc1cccc(CC)c1-n1cncc1C(=O)ON=C(C)C [Beispiel 40] | 21 | 27 | 16 | 25 | 19 | 38 | keine Schäden | keine Schäden | keine Schäden | 26 | 18 | 25
2 | CCc1cccc(CC)c1-n1cncc1C(=O)ON=C(C)C(C)C [Beispiel 42] | 14 | 19 | 12 | 21 | 16 | 31 | keine Schäden | keine Schäden | keine Schäden | 19 | 14 | 19
3 | CCc1cccc(CC)c1-n1cncc1C(=O)ON=C(C)C1CC1 [Beispiel 45] | 15 | 22 | 11 | 19 | 15 | 32 | keine Schäden | keine Schäden | keine Schäden | 18 | 13 | 19
4 | CCc1cccc(CC)c1-n1cncc1C(=O)ON=C1CCCCC1 [Beispiel 51] | 20 | 27 | 16 | 25 | 18 | 37 | keine Schäden | keine Schäden | keine Schäden | 24 | 19 | 26
5 | CCOC(=O)CSC(=O)c1cncn1-c1c(CC)cccc1CC [Beispiel 54] | 18 | 24 | 13 | 22 | 19 | 33 | keine Schäden | keine Schäden | keine Schäden | 19 | 14 | 21
6 | CCc1cccc(CC)c1-n1cncc1C(=O)NCC#N [Beispiel 57] | 17 | 23 | 12 | 23 | 18 | 31 | keine Schäden | keine Schäden | keine Schäden | 18 | 13 | 20
7 | CCc1cccc(CC)c1-n1cncc1C(=O)NCC(=O)O [Beispiel 60] | 17 | 24 | 13 | 23 | 19 | 32 | keine Schäden | keine Schäden | keine Schäden | 21 | 13 | 21
8 | CCc1cccc(CC)c1-n1cncc1C(=O)NCC(=O)OC [Beispiel 61] | 18 | 25 | 13 | 23 | 19 | 31 | keine Schäden | keine Schäden | keine Schäden | 17 | 13 | 20
